Data on two molecules can be found in BindingDB's records for doi:10.1021/jm00129a011 (Csiro Division of Chemicals and Polymers, 1989).

This test concerns the target Alpha-mannosidase (Canavalia ensiformis). Put plainly: Inhibitory activity against Mannosidase in jack bean (Canavalia ensiformis).

For orientation: IC50 means the point on the concentration scale where inhibition reaches its midpoint. For `OC[C@@H](O)[C@H]1NC[C@@H](O)[C@H]1O`, the IC50 amounted to 500 nM.
Then `C[C@@H](O)[C@H]1NC[C@@H](O)[C@H]1O`, with 600 nM.
